Reference: ChEMBL document CHEMBL1201862, “PubChem BioAssay data set” (2004)
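Method: 48-hour compound exposure of cells in 96-well plates, five concentrations, linear interpolation of endpoints. The concentration for 50% growth inhibition is given as GI50.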 The source made the active and inactive calls. Cut-off read from the data, not from the text of the source: active = GI50 up to about 1.1 µM and inactive = higher.

Columns and labels:
Experiment in all cases: NCI anticancer screen, dose series, 48 h
[1] = system: COLO 205
[2] = system: OVCAR-5
[3] = system: HOP-62
[4] = system: MDA-MB-231
[5] = system: NCI-H522
[6] = system: HL-60
[7] = system: SN12C
[8] = system: XF498
[9] = system: SR
[10] = system: PC-3
[11] = system: MDA-N
[12] = system: TK-10
[13] = system: HCT-15
[14] = system: ACHN
[15] = system: 786-0
[16] = system: UACC-257
[17] = system: MOLT-4
[18] = system: SW-620
[19] = system: NCI/ADR-RES
[20] = system: KM-20L2
[21] = system: NCI-H226
[22] = system: HCC 2998
[23] = system: SK-MEL-28
[24] = system: T47D
[25] = system: SNB-78
[26] = system: M14
[27] = system: MDA-MB-435
[28] = system: DLD-1
[29] = system: DU-145
[30] = system: SK-MEL-5
[31] = system: SK-MEL-2
[32] = system: UACC-62
[33] = system: K562
[34] = system: Hs-578T
[35] = system: OVCAR-8
[36] = system: EKVX
[37] = system: HT-29
[38] = system: OVCAR-3
[39] = system: BT-549
[40] = system: SNB-75
[41] = system: RXF 393
[42] = system: IGROV-1
[43] = system: KM12
[44] = system: DMS-273
[45] = system: SF-268
[46] = system: NCI-H23
[47] = system: RPMI-8226
[48] = system: U-251
[49] = system: HOP-92
[50] = system: OVCAR-4
[51] = system: SK-OV-3
[52] = system: SNB-19
[53] = system: LOX IMVI
[54] = system: A549
[55] = system: NCI-H460
[56] = system: CCRF-CEM
[57] = system: HCT-116
[58] = system: SF-295
[59] = system: SF-539
[60] = system: UO-31
[61] = system: A498

CC(C)=CC(=O)OC1C2C(C)=CC(=O)C(O)C2(C)C2C3(O)OCC24C(CC(=O)OC14)C(C)C3O (stereo unspecified)
GI50 [1]: 97.5 nM (active)
GI50 [2]: 10.1 nM (active)
GI50 [3]: 9.42 nM (active)
GI50 [4]: 16.8 nM (active)
GI50 [5]: 2.83 nM (active)
GI50 [6]: 2.69 nM (active)
GI50 [7]: 47.9 nM (active)
GI50 [8]: 24.6 nM (active)
GI50 [9]: 0.774 nM (active)
GI50 [10]: 2.89 nM (active)
GI50 [11]: 2.08 nM (active)
GI50 [12]: 21.6 nM (active)
GI50 [13]: 42.6 nM
GI50 [14]: 22 nM (active)
GI50 [15]: 10 nM (active)
GI50 [16]: 11.3 nM (active)
GI50 [17]: 1.1 nM (active)
GI50 [18]: 8.22 nM (active)
GI50 [19]: 72.4 nM (active)
GI50 [20]: 31.6 nM (active)
GI50 [21]: 9.84 nM (active)
GI50 [22]: 12.8 nM (active)
GI50 [23]: 4.61 nM (active)
GI50 [24]: 2.88 nM (active)
GI50 [25]: 31.1 nM (active)
GI50 [26]: 2.3 nM (active)
GI50 [27]: 3 nM (active)
GI50 [28]: 21.1 nM (active)
GI50 [29]: 3.54 nM (active)
GI50 [30]: 3.08 nM (active)
GI50 [31]: 17.9 nM (active)
GI50 [32]: 9.25 nM (active)
GI50 [33]: 5.21 nM (active)
GI50 [34]: 2.25 nM (active)
GI50 [35]: 17 nM (active)
GI50 [36]: 57.7 nM (active)
GI50 [37]: 10.4 nM (active)
GI50 [38]: 6.24 nM (active)
GI50 [39]: 2.87 nM (active)
GI50 [40]: 14.1 nM (active)
GI50 [41]: 14.9 nM (active)
GI50 [42]: 8.49 nM (active)
GI50 [43]: 13.9 nM (active)
GI50 [44]: 3.48 nM (active)
GI50 [45]: 29 nM (active)
GI50 [46]: 6.55 nM (active)
GI50 [47]: 7.55 nM (active)
GI50 [48]: 3.24 nM (active)
GI50 [49]: 6.84 nM (active)
GI50 [50]: 13.5 nM (active)
GI50 [51]: 213 nM (active)
GI50 [52]: 3.49 nM (active)
GI50 [53]: 1.5 nM (active)
GI50 [54]: 152 nM (active)
GI50 [55]: 29.4 nM (active)
GI50 [56]: 8.59 nM (active)
GI50 [57]: 5.19 nM (active)
GI50 [58]: 27.7 nM (active)
GI50 [59]: 5.05 nM (active)
GI50 [60]: 203 nM (active)
GI50 [61]: 117 nM (active)
